According to patent US9247741B2, “Use of macrocyclic picolinamides as fungicides” (DOW AGROSCIENCES LLC, priority 2013, dated 2016):

How the values were obtained:
Assay type in all cases: in vivo
Erysiphe cichoracearum = assay: Powdery mildew of cucumber (ERYSCI) disease control; conditions: Golovinomyces cichoracearum, 24 h, 1 Day Protectant, read-out: ERYSCI disease control rating
Method: Technical grades of materials were dissolved in acetone, which were then mixed with nine volumes of water containing 110 ppm Triton X-100. The fungicide solutions were applied onto wheat seedlings using an automated booth sprayer to run-off. All sprayed plants were allowed to air dry prior to further handling. All fungicides were evaluated using the aforementioned method for their activity vs. all target diseases. Wheat leaf blotch and brown rust activity were also evaluated using track spray applications, in which case the fungicides were formulated as EC formulations, containing 0.1% Trycol 5941 in the spray solutions. Wheat plants (variety Yuma) were grown from seed in a greenhouse in 50% mineral soil/50% soil-less Metro mix until the first leaf was fully emerged, with 7-10 seedlings per pot. These plants were inoculated with an aqueous spore suspension of Septoria tritici either prior to or after fungicide treatments. After inoculation the plants were kept in 100% relative humidity (one day in a dark dew chamber followed by two to three days in a lighted dew chamber at 20° C.) to permit spores to germinate and infect the leaf. The plants were then transferred to a greenhouse set at 20° C. for disease to develop. When disease symptoms were fully expressed on the l^st leaves of untreated plants, infection levels were assessed on a scale of 0 to 100 percent disease severity. Percent disease control was calculated using the ratio of disease severity on treated plants relative to untreated plants. Evaluation of Fungicidal Activity: Powdery Mildew of Cucumber (Erysiphe cichoracearum; Bayer Code […]) Cucumber seedlings (variety Bush Pickle) were grown in soil-less Metro mix, with one plant per pot, and used in the test when 12 to 14 days old. Plants were inoculated with a spore suspension 24 hr following fungicide treatments. After inoculation the plants remained in the greenhouse set at 20° C. until disease was fully expressed. Fungicide formulation, application and disease assessment on the sprayed leaves followed the procedures as described in the Example A.

[1] = tested on: Blumeria graminis Fsp. Hordei; assay: Barley powdery mildew (ERYSGH) disease control; conditions: 24 h, 1 Day Protectant, read-out: ERYSGH disease control rating
Method: Technical grades of materials were dissolved in acetone, which were then mixed with nine volumes of water containing 110 ppm Triton X-100. The fungicide solutions were applied onto wheat seedlings using an automated booth sprayer to run-off. All sprayed plants were allowed to air dry prior to further handling. All fungicides were evaluated using the aforementioned method for their activity vs. all target diseases. Wheat leaf blotch and brown rust activity were also evaluated using track spray applications, in which case the fungicides were formulated as EC formulations, containing 0.1% Trycol 5941 in the spray solutions. Wheat plants (variety Yuma) were grown from seed in a greenhouse in 50% mineral soil/50% soil-less Metro mix until the first leaf was fully emerged, with 7-10 seedlings per pot. These plants were inoculated with an aqueous spore suspension of Septoria tritici either prior to or after fungicide treatments. After inoculation the plants were kept in 100% relative humidity (one day in a dark dew chamber followed by two to three days in a lighted dew chamber at 20° C.) to permit spores to germinate and infect the leaf. The plants were then transferred to a greenhouse set at 20° C. for disease to develop. When disease symptoms were fully expressed on the l^st leaves of untreated plants, infection levels were assessed on a scale of 0 to 100 percent disease severity. Percent disease control was calculated using the ratio of disease severity on treated plants relative to untreated plants. Evaluation of Fungicidal Activity: Barley Powdery Mildew (Blumeria graminis Fsp. Hordei; Synonym: Erysiphe graminis Fsp. Hordei; Bayer Code […]) Barley seedlings (variety Harrington) were propagated in soil-less Metro mix, with each pot having 8 to 12 plants, and used in the test when first leaf was fully emerged. Test plants were inoculated by dusting with infected stock plants 24 hr after fungicide treatments. After inoculation the plants were kept in a greenhouse set at 20° C. for disease to develop. Fungicide formulation, application and disease assessment on the sprayed leaves followed the procedures as described in the Example A.

Alternaria solani = assay: Tomato early blight (ALTESO) disease control; conditions: 24 h, 1 Day Protectant, read-out: ALTESO disease control rating
Method: Technical grades of materials were dissolved in acetone, which were then mixed with nine volumes of water containing 110 ppm Triton X-100. The fungicide solutions were applied onto wheat seedlings using an automated booth sprayer to run-off. All sprayed plants were allowed to air dry prior to further handling. All fungicides were evaluated using the aforementioned method for their activity vs. all target diseases. Wheat leaf blotch and brown rust activity were also evaluated using track spray applications, in which case the fungicides were formulated as EC formulations, containing 0.1% Trycol 5941 in the spray solutions. Wheat plants (variety Yuma) were grown from seed in a greenhouse in 50% mineral soil/50% soil-less Metro mix until the first leaf was fully emerged, with 7-10 seedlings per pot. These plants were inoculated with an aqueous spore suspension of Septoria tritici either prior to or after fungicide treatments. After inoculation the plants were kept in 100% relative humidity (one day in a dark dew chamber followed by two to three days in a lighted dew chamber at 20° C.) to permit spores to germinate and infect the leaf. The plants were then transferred to a greenhouse set at 20° C. for disease to develop. When disease symptoms were fully expressed on the l^st leaves of untreated plants, infection levels were assessed on a scale of 0 to 100 percent disease severity. Percent disease control was calculated using the ratio of disease severity on treated plants relative to untreated plants. Evaluation of Fungicidal Activity: Tomato Early Blight (Alternaria solani; Bayer Code […]) Tomato plants (variety Outdoor girl) were propagated in soil-less Metro mix, with each pot having one plant, and used when 12 to 14 days old. Test plants were inoculated with an aqueous spore suspension of Alternaria solani 24 hr after fungicide treatments. After inoculation the plants were kept in 100% relative humidity (one day in a dark dew chamber followed by two to three days in a lighted dew chamber at 20° C.) to permit spores to germinate and infect the leaf. The plants were then transferred to a growth room at 22° C. for disease to develop. Fungicide formulation, application and disease assessment on the sprayed leaves followed the procedures as described in the Example A.

SMILES | pest or weed control at 100 ppm (Erysiphe cichoracearum) | pest or weed control at 100 ppm [1] | pest or weed control at 100 ppm (Alternaria solani)
CCCC[C@H]1[C@H](C)OC(=O)[C@@H](NC(=O)c2nccc(OC)c2OCOC(C)=O)CCC[C@@H]1OCC1CC1 [Compound 73] | < 70% | > 70% | < 70%
CCCO[C@H]1CCC[C@H](NC(=O)c2nccc(OC)c2OC(C)=O)C(=O)O[C@@H](C)[C@@H]1CCC(C)C [Compound 74, 2-(((3S,7S,8S,9S)-8-isopentyl-9-methyl-2-oxo-7-propoxyoxonan-3-yl)carbamoyl)-4-methoxypyridin-3-yl acetate] | > 70% | < 70% | > 70%
COc1ccnc(C(=O)N[C@H]2CCC[C@H](Oc3ccccc3)[C@@H](CCC(C)C)[C@H](C)OC2=O)c1OCOC(C)=O [Compound 40] | > 70% | > 70% | > 70%
CCCO[C@H]1CCC[C@H](NC(=O)c2nccc(OC)c2OCOC(C)=O)C(=O)O[C@@H](C)[C@@H]1CCC(C)C [Compound 25, ((2-(((3S,7S,8S,9S)-8-isopentyl-9-methyl-2-oxo-7-propoxyoxonan-3-yl)carbamoyl)-4-methoxypyridin-3-yl)oxy)methyl acetate] | < 70% | > 70% | > 70%
CCCO[C@H]1CCC[C@H](NC(=O)c2nccc(OC)c2OC(C)=O)C(=O)O[C@@H](C)[C@@H]1Cc1ccccc1 [Compound 70] | < 70% | < 70% | > 70%
COc1ccnc(C(=O)N[C@H]2CCC[C@H](OCC3CC3)[C@@H](Cc3ccc(F)cc3)[C@H](C)OC2=O)c1OCOC(C)=O [Compound 61] | < 70% | < 70% | < 70%
CCCC[C@H]1[C@H](C)OC(=O)[C@@H](NC(=O)c2nccc(OC)c2OCOC(C)=O)CCC[C@@H]1Oc1ccccc1 [Compound 33] | > 70% | > 70% | > 70%
COc1ccnc(C(=O)N[C@H]2CCC[C@H](Oc3ccccc3)[C@@H](CCC(C)C)[C@H](C)OC2=O)c1OC(C)=O [Compound 36] | > 70% | > 70% | > 70%
